Test results from US10858321B2, “Composition for inducing cell reprogramming” (GWANGJU INSTITUTE OF SCIENCE AND TECHNOLOGY, priority 2014, dated 2020).

How the values were obtained:
[1] = test system: C2C12 myoblasts; assay: MTT assay (cytotoxicity); format: cell-based, mouse; conditions: for cytotoxicity: result in words, comparison with the indazole derivatives; for IC50: C2C12 myoblasts, incubated 2 days with compound
Experimental: C2C12 myoblasts were seeded in a 96-well plate at a density of 3×10^3 cells per well. The cells were cultured for one day, and then treated with each compound. Next, the cells were incubated for 2 days, and then treated with a serum-free medium containing 3-(4,5-dimethylthiazol-2-yl)-2,5-diphenyltetrazolium bromide (MTT) for 3 hours. After removal of the medium, the cells were incubated in DMSO for 10 minutes while they were shaken. The absorbance at 570 nm was measured by a microreader (VersaMax, Molecular Devices) (see FIG. 4).

[2] = test system: C2C12 mouse skeletal myoblasts; assay: Cell screening by Alizarin red staining (direct reprogramming of myoblasts into osteoblasts); format: cell-based; design: key to Alizarin red staining (osteoblasts): ++ (strong positive); + (weak positive); − (negative); conditions: for reprogramming potential in differentiation into osteoblasts: Alizarin red staining, result in words; for Alizarin red staining (osteoblasts): C2C12 myoblasts treated 72 hours with compound, then osteogenic differentiation inducing medium 14 days, reversine 100 nM
Experimental: A method for identifying compounds that induce cell reprogramming was based on a previous study (PMID: 23044010 and 18974773) on the myocyte-to-osteocyte conversion by bone formation induction and a previous reversine publication (Chen S 2004).
C2C12 mouse skeletal myoblasts were seeded in a 24-well cell culture dish at a density of 1×10^4 cells per well. 24 Hours after seeding, the compound of interest was added to three well at a concentration of […]. For a positive control, the cells were treated with 100 nM reversine or 2 μM BIO. The two compounds are known to induce the conversion of myoblasts to […] (Chen S 2004 and Kim WH recapitulate papers). For a negative control, the cells were untreated or treated with DMSO. The cells were treated with each compound for a total of 72 hours, and were further treated with each compound after 48 hours. The cytotoxicity of each compound could be confirmed from disappearance of a portion of the cells and from floating cell debris during culture, and a compound causing cytotoxicity was screened again at a concentration of 250 nM. After 72 hours, the medium was replaced with an osteogenic differentiation inducing medium (treated for 14 days with a DMEM supplemented with 10% FBS, […] ascorbic acid-2-phosphate, 0.1 μM dexamethasone, 10 mM β-glycerophosphate, 50 units/mL of penicillin, and […] streptomycin). The osteogenic differentiation inducing medium was based on one previously described in direct cell reprogramming (reversine papers, Chen S 2004 and Chen S 200/). Direct cell reprogramming from myocytes to osteocytes was analyzed by Alizarin red staining that detects calcium deposits (Gregory CA 2004 PMID: 15136169) in bone lineage cells.
Cells were washed once with PBS, and then fixed with phosphate-buffered formalin for 20 minutes. The fixed cells were washed with distilled water, and immersed in a solution of 1% Alizarin red-S in water for 5 minutes. The remaining dye was washed out with distilled water. The cells were dried, and then imaged with an optical microscope (CKX41 Olympus). The stained cells did look red, and a compound corresponding to such cells was selected as a ‘hit’ compound and further analyzed.

[3] = molecular target: T1, GSK-3β (Homo sapiens, UniProt P49841); assay: HTRF kinase assay, GSK-3β; format: biochemical; conditions: 1 μM compound
T1 construct: purchased Millipore (Billerica, Mass.)
T1 sequence (P49841 whole entry, species assumed): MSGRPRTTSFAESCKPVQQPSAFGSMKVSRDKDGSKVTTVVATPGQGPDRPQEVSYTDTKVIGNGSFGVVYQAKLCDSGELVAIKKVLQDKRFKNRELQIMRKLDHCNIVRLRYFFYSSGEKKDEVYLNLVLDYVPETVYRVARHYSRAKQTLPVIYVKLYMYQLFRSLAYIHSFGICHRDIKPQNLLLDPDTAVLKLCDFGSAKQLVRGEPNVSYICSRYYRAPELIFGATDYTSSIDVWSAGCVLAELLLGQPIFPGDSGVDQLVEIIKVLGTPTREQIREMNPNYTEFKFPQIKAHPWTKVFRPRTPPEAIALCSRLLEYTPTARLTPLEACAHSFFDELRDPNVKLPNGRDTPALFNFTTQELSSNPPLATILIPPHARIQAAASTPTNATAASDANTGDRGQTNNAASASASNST
Experimental: (§1) The inhibitory activities of indazole derivatives against GSK-3 β and Aurora A were analyzed by HTRF (homogeneous time-resolved fluorescence) assay. The HTRF assay is an assay method that detects the phosphorylation of peptide substances in the presence of ATP. Phosphorylated substances were detected by TR-FRET (Time Resolved-Fluorescence Resonance) signals. Recombinant GSK-3 β and Aurora A kinase were purchased from Millipore (Billerica, Mass.). Using a HTRF KinEASE kit (Cisbio), the assay was performed. Each of GSK-3 β and Aurora A was treated with 1 μM of each indazole compound, and the degree of inhibition of phosphorylation was analyzed. The assay was composed of a compound-enzyme mixture and peptide substance dissolved in kinase reaction buffer (250 mM HEPES (pH 7.0), 0.5 mM orthovanadate, 0.05% BSA, 0.1% NaN3). After addition of detection buffer, the TR-FRET signal was detected by an EnVision multi-label reader.

[4] = molecular target: T2, Aurora A (Homo sapiens, UniProt O14965); assay: HTRF kinase assay, Aurora A; format: biochemical; conditions: 1 μM compound
T2 construct: purchased Millipore (Billerica, Mass.)
T2 sequence (O14965 1-403): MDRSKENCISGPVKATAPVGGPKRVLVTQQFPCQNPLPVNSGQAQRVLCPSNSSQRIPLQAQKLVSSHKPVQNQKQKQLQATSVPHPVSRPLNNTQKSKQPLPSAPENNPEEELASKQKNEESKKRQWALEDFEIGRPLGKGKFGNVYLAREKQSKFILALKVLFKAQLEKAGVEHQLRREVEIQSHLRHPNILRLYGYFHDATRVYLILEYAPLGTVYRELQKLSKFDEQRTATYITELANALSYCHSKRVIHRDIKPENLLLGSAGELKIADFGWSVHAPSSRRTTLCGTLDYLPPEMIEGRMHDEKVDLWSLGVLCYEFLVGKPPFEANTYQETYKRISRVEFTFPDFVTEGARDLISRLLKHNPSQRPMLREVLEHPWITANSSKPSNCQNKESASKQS
Experimental: as §1

[5] = test system: adipocytes; assay: Oil red O staining (differentiation into adipocytes); format: cell-based; design: key to Oil red O staining (adipocytes): ++ (strong positive); + (weak positive); − (negative); conditions: for reprogramming potential in differentiation into adipocytes: oil red O staining, result in words

Compound: O=C1Nc2cc(Br)ccc2/C1=C1/Nc2ccccc2/C1=N\O [BIO, reference compound]
- cytotoxicity [1]: high cytotoxicity

Compound: O=C(Nc1n[nH]c2ccc([N+](=O)[O-])cc12)c1ccccc1 [LDD-1664, N-(5-nitro-1(2)H-indazol-3-yl)-benzamide]
- reprogramming potential in differentiation into osteoblasts [2]: strong reprogramming potential
- Alizarin red staining (osteoblasts) [2]: ++
- % Inhibition at 1 μM concentration, GSK-3β [3]: 6.5%
- % Inhibition at 1 μM concentration, Aurora-A [4]: 0%

Compound: O=[N+]([O-])c1ccc2[nH]nc(NS(=O)(=O)c3ccccc3)c2c1 [LDD-1667, N-(5-nitro-111-indazol-3-yl)benzenesulfonamide]
- Alizarin red staining (osteoblasts) [2]: −
- % Inhibition at 1 μM concentration, GSK-3β [3]: 0%
- % Inhibition at 1 μM concentration, Aurora-A [4]: 0%

Compound: O=C(Nc1n[nH]c2ccc(C(=O)N3CCCCC3)cc12)c1ccccc1 [LDD-1820, N-(5-(piperidine-1-carbonyl)-1H-indazol-3-yl)benzamide]
- Alizarin red staining (osteoblasts) [2]: −
- inhibition at 1 µM ([3]; read-out: % Inhibition at 1 μM concentration, GSK-3β): 0.5%
- inhibition at 1 µM ([4]; read-out: % Inhibition at 1 μM concentration, Aurora-A): 32.5%

Compound: O=C(c1ccc2[nH]nc(C(=NO)Nc3ccccc3)c2c1)N1CCCCC1 [LDD-1821, N′-hydroxy-N-phenyl-5-(piperidine-1-carbonyl)-1H-indazole-3-carboxamide]
- reprogramming potential in differentiation into osteoblasts [2]: strong reprogramming potential
- Alizarin red staining (osteoblasts) [2]: ++
- Oil red O staining (adipocytes) [5]: ++
- reprogramming potential in differentiation into adipocytes [5]: strong reprogramming potential
- % Inhibition at 1 μM concentration, GSK-3β ([3]; 1 µM): no inhibitory activity
- % Inhibition at 1 μM concentration, GSK-3β ([3]; listed as LDD1821, 1 µM): 0.2%
- % Inhibition at 1 μM concentration, Aurora-A ([4]; 1 µM): no inhibitory activity
- % Inhibition at 1 μM concentration, Aurora-A ([4]; listed as LDD1821, 1 µM): 0%
- IC50 [1]: > 10 µM

Compound: O=C(c1ccc2[nH]nc(NC(=NO)c3ccccc3)c2c1)N1CCCCC1 [LDD-1945, N′-hydoxy-N-(5-(piperidine-1-carbonyl)-111-indazol-3-yl)benzimidamide]
- reprogramming potential in differentiation into osteoblasts [2]: strong reprogramming potential
- Alizarin red staining (osteoblasts) [2]: ++
- IC50 [1]: > 10 µM

Compound: O=C(O)c1ccc2[nH]nc(C(=NO)Nc3ccccc3)c2c1 [LDD-1986, 3-(N′-hydroxy-N-phenylcarbamimidoyl)-1H-indazole-5-carboxylic Acid]
- Alizarin red staining (osteoblasts) [2]: +
- Oil red O staining (adipocytes) [5]: ++
- reprogramming potential in differentiation into adipocytes [5]: strong reprogramming potential
- IC50 ([1]; Mus musculus, 48 h): > 10 µM

Compound: CCCN1CCN(C(=O)c2ccc3[nH]nc(C(=NO)Nc4ccccc4)c3c2)CC1 [LDD-1987, N′-hydroxy-N-phenyl-5-(4-propylpiperazine-1-carbonyl)-1H-indazole-3-carboxamide]
- Alizarin red staining (osteoblasts) [2]: +
- Oil red O staining (adipocytes) [5]: ++
- reprogramming potential in differentiation into adipocytes [5]: strong reprogramming potential
- IC50 [1]: > 10 µM

Compound: COCCN1CCN(C(=O)c2ccc3[nH]nc(C(=NO)Nc4ccccc4)c3c2)CC1 [LDD-1988, N′-hydroxy-5-(4-(2-methoxyethyl)piperazine-1-carbonyl)-N-phenyl-1H-indazole 3-carboximidamide]
- Alizarin red staining (osteoblasts) [2]: +
- Oil red O staining (adipocytes) [5]: ++
- reprogramming potential in differentiation into adipocytes [5]: strong reprogramming potential
- IC50 ([1]; Mus musculus, 48 h): > 10 µM

Compound: O=C(O)c1ccc2[nH]nc(NC(=NO)c3ccccc3)c2c1 [LDD-2194, 3-(N′-hydroxybenzimidamido)-1H-indazole-5-carboxylic Acid]
- IC50 ([1]; Mus musculus, 48 h): > 10 µM

Compound: COC(=O)c1ccc2[nH]nc(NC(=NO)c3ccccc3)c2c1 [LDD-2195, Methyl-3-(N′-hydroxybenzimidamido)-1H-indazole-5-carboxylate]
- IC50 ([1]; Mus musculus, 48 h): > 10 µM

Compound: COC(=O)c1ccc2[nH]nc(C(=NO)Nc3ccccc3)c2c1 [LDD-2196, Methyl-3-(N′-hydroxy-N-phenylcarbamimidoyl)-1H-indazole-5-carboxylate]
- IC50 ([1]; Mus musculus, 48 h): > 10 µM

Compound: O=C(O)c1ccc2[nH]nc(C(=NO)Nc3ccc(F)cc3)c2c1 [LDD-2197, 3-N-(4-fluorophenyl)-N′-hydroxycarbamimidoyl-1H-indazole-5-carboxylic Acid]
- IC50 [1]: > 10 µM

Compound: COc1ccc(NC(=NO)c2n[nH]c3ccc(C(=O)O)cc23)cc1 [LDD-2198, 3-(N′-hydroxy-N-(4-methoxyphenyl)carbaminidoyl)-1H-indazole-5-carboxylic Acid]
- IC50 [1]: > 10 µM

Compound: O=C(c1ccc2[nH]nc(C(=NO)Nc3ccc(F)cc3)c2c1)N1CCCCC1 [LDD-2199, N-(4-fluorophenyl)-N′-hydroxy-5-(piperidine-1-carbonyl)-1H-indazole-3-carboxamide]
- reprogramming potential in differentiation into osteoblasts [2]: strong reprogramming potential
- Alizarin red staining (osteoblasts) [2]: ++
- IC50 [1]: > 10 µM

Compound: COc1ccc(NC(=NO)c2n[nH]c3ccc(C(=O)N4CCCCC4)cc23)cc1 [LDD-2200, N′-hydroxy-N-(4-methoxyphenyl)-5-(piperidine-1-carbonyl)-1H-indazole-3-carboxamide]
- reprogramming potential in differentiation into osteoblasts [2]: strong reprogramming potential
- Alizarin red staining (osteoblasts) [2]: ++
- IC50 [1]: > 10 µM

Compound: c1nc2nc(Nc3ccc(N4CCOCC4)cc3)nc(NC3CCCCC3)c2[nH]1 [Reversine, reference compound]
- reprogramming potential in differentiation into osteoblasts [2]: strong reprogramming potential
- Alizarin red staining (osteoblasts) [2]: ++
- Oil red O staining (adipocytes) [5]: ++
- cytotoxicity [1]: high cytotoxicity
